The subject of this test is p-ERK level in GP2D cells. As to the kind of experiment: Detection of p-ERK level in GP2D cells (HTRF). Conditions: 3 hours incubation, read-out: GP2D pERK IC50. The format is cell-based. From the text: GP2D cell line (DMEM+10% FBS+1% penicillin/streptomycin) was purchased from ECACC; RPMI-1640 medium was purchased from Gibco; fetal bovine serum was purchased from Hyclone; Advanced Phospho-ERK1/2(THR202/TYR204) KIT was purchased from Bioauxilium-Advanced Phospho; ERK1/2(THR202/TYR204) KIT was composed of: Advanced PhosphoERK1/2Eu Cryptate antibody, Advanced PhosphoERK1/2 d2 antibody. Blocking reagent (stock solution 100×), Lysis buffer #1 (stock solution 4×), Detection buffer (ready-to-use), with a storage temperature of ≤−16° C. for all.
(1) The cells were seeded in a white-bottomed 384-well cell culture plate, 8 μL of cell suspension per well, each well containing 7,500 cells. The cell plate was placed in a carbon dioxide incubator and incubated overnight at 37° C.;
(2) The test compound was diluted with 100% DMSO to 3 mM as the first concentration, and then diluted with a pipette to 10 concentrations of 3,000, 1,000, 300, 100, 30, 10, 3, 1, 0.3 and 0.1 μM 2 μL of the compound was taken and added to 198 μL of cell starvation medium, mixed well, 15 μL of compound solution was taken and added to 35 μL of cell starvation medium and mixed well. […]
(5) After incubation, a multilabel plate reader was used to read the HTRF excitation: 320 nm, emission: 615 nm, and 665 nm. […]
(In TR-FRET formats the signal depends on donor and acceptor labels being close together.)

Like-named read-outs stand apart in the source and are kept apart here.

Regarding `CCn1c(-c2cc(N3CCN(C)CC3)cnc2C(C)OC)c2c3cc(ccc31)-c1csc(n1)CC(NC(=O)C1CC1C(F)F)C(=O)N1NC(C(=O)OCC(C)(C)C2)C2CC1C2` (single isomer, unassigned) [Trifluoroacetate of Compound 8A], the IC50 came to 0.8 nM. Turning to `[2H]C([2H])([2H])N1CCN(c2cnc([C@H](C)OC)c(-c3c4c5cc(ccc5n3CC)-c3csc(n3)C[C@H](NC(=O)[C@H]3[C@H](C)[C@@H]3C)C(=O)N3N[C@H](C(=O)OCC(C)(C)C4)C4CC3C4)c2)CC1` [Trifluoroacetate of Compound 12A], the IC50 (GP2d) is 0.2 nM.

Broadly, the IC50 is the midpoint of a concentration-inhibition curve.

(Values after patent US12458647B2, “Macrocyclic derivative and use thereof” (Guangzhou Joyo Pharmatech Co., Ltd., priority 2022, dated 2025).)
